Assay results from patent US8067424B2, “Selective inhibitors for cyclin-dependent kinases” (Emory University, priority 2007, dated 2011).
Where two headings read alike, the source gives them in different places.

Columns and labels:
Type in all cases: biochemical
ERK2 = ERK2 (Homo sapiens, UniProt P28482); assay: Kinase screen: MAPK2/ERK2 assay
Protocol: (§1) Generally, the same procedure was used for all assays. Since the total assay volume was 25.5 microliters, 0.5 microliters of inhibitors at 51× assay concentration were added to the plates before any other addition.
(§2) The basic procedure was to add 0.5 microliters inhibitor/control in DMSO to plate. Fifteen microliters of enzyme/substrate/buffer mix were added and incubated for 5 min. Ten microliters MgATP at the relevant concentration were added and incubated for 30 min. The assay was stopped by adding 5 microliters of 3% orthophosphoric acid. The assay was transferred to a p81 filter plate and read in a scintillation counter of 30 sec/well. Note that this assay procedure was not followed for MKK1, which instead involved a two-step assay, and PKC alpha, which required the addition of lipid vesicles.
MAPK2/ERK2 assay: MAPK/ERK2 (5-20 mU diluted in 50 mM Tris pH 7.5, 0.1 mM EGTA, 0.1 mM Na3VO4, 0.1% b-mercaptoethanol, 1 mg/ml BSA) was assayed against MBP in a final volume of 25.5 μl in 25 mM Tris pH 7.5, 0.1 mM EGTA, 0.33 mg/ml MBP, 10 mM magnesium acetate and 0.05 mM [33P-g-ATP] (500-1000 cpm/pmole) and incubated for 30 min at room temperature. Assays were stopped by addition of 5 μl of 0.5 M (3%) orthophosphoric acid and then harvested onto P81 Unifilter plates with a wash buffer of 50 mM orthophosphoric acid.

PRK2 = PRK2 (Homo sapiens, UniProt Q16513); assay: Kinase screen: PRK2 assay
Protocol: as §1, §2
PRK2 assay: 5-20 mU of PRK2 (diluted in 50 mM Tris (pH 7.5), 0.1 mM EGTA, 1 mg/ml BSA, 0.1%, b-Mercaptoethanol) was assayed against Long S6 peptide ([…]) (SEQ ID NO: 10) in a final volume of 25.5 μl containing 50 mM Tris (pH 7.5), 0.1 mM EGTA, 0.1%, b-Mercaptoethanol, 30 μM Long S6 peptide, 10 mM magnesium acetate and 0.005 mM [33P-g-ATP] (500-1000 cpm/pmole) and incubated for 30 mins at room temperature. Assays were stopped by addition of 5 μl of 0.5M (3%) orthophosphoric acid. Assays were harvested onto P81 Unifilter plates using a wash buffer of 50 mM orthophosphoric acid.

CAMKKβ = CAMKKβ (Homo sapiens, UniProt Q96RR4); assay: Kinase screen: CAMKKb assay
Protocol: as §1, §2
(500-1000 cpm/pmole) and incubated for 30 mins at room temperature. […] Assays were harvested onto P81 Unifilter plates using a wash buffer of 50 mM orthophosphoric acid.

PHK = assay: Kinase screen: PBK assay (phosphorylase b peptide); details: for mean activity remaining (as a percentage of the original activity), PHK: 10 micromolar compound
Protocol: as §1, §2
PBK assay: PBK (5-20 mU diluted in 50 mM Na-b-glycerophosphate pH 7.0, 0.1% b-mercaptoethanol) was assayed against phosphorylase b peptide ([…]) (SEQ ID NO: 14) in a final volume of 25.5 μl containing 50 mM Tris pH 8.6, 50 mM Na-b-glycerophosphate, 0.04 mM CaCl2, phosphorylase b peptide (0.196 mM), 10 mM magnesium acetate, 0.02 mM [33P-g-ATP] (500-1000 cpm/pmole) then incubated for 15 min at room temperature. Assays were stopped by addition of 5 μl of 0.5 M (3%) orthophosphoric acid and then harvested onto P81 Unifilter plates with a wash buffer of 50 mM orthophosphoric acid.

NEK6 = NEK6 (Homo sapiens, UniProt Q9HC98); assay: Kinase screen: NEK6 assay
Protocol: as §1, §2
(500-1000 cpm/pmole) and incubated for 30 min at room temperature. Assays were stopped by addition of 5 μl of 0.5 M (3%) orthophosphoric acid and then harvested onto P81 Unifilter plates with a wash buffer of 50 mM orthophosphoric acid.

VEG-FR = assay: Kinase screen: VEG-FR assay; details: 10 micromolar compound
Protocol: as §1, §2
VEG-FR assay: VEG-FR (5-20 mU diluted in 50 mM Tris pH 7.5, 0.1 mM EGTA, 1 mg/ml BSA) was assayed against a substrate peptide ([…]) (SEQ ID NO: 35) in a final volume of 25.5 μl containing 50 mM Tris pH 7.5, 300 μM substrate peptide, 10 mM magnesium acetate and 0.02 mM [33P-g-ATP] (50-1000 cpm/pmole) and incubated for 30 min at room temperature. Assays were stopped by addition of 5 μl of 0.5 M (3%) orthophosphoric acid and then harvested onto P81 Unifilter plates with a wash buffer of 50 mM orthophosphoric acid.

CDK9/cyclin T complex = target: T1, CDK9/cyclin T complex (Homo sapiens, UniProt P50750); assay: CDK9/cyclin T kinase assay (as for CDK7); details: for remaining activity at 0.1 µM: 100 nM, mean of three (standard deviation), read-out: CDK9 % remaining kinase activity after incubation with 100 nM of compound; for IC50: Table 7, mean of three experiments, read-out: CDK9 kinase inhibition in vitro (IC50)
T1 construct: purchased Proqinase GmbH, Germany
How it was run: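 Run as the CDK7 protocol with 50 ng CDK2/cyclin A or 100 ng CDK9/cyclin T; compound 30 min at 30 °C, then 2 μM ATP final for 20 min at 30 °C. ATP depletion by luciferase luminescence (PKLight), triplicate, normalised to no-enzyme and enzyme controls.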

[1] = 10 micromolar compound, read-out: mean activity remaining (as a percentage of the original activity), ERK2
[2] = 10 micromolar compound, read-out: mean activity remaining (as a percentage of the original activity), PRK2
[3] = 0.5 h, read-out: mean activity remaining (as a percentage of the original activity), CAMK Kb
[4] = 10 micromolar compound, read-out: mean activity remaining (as a percentage of the original activity), NEK 6

SMILES | mean activity remaining (as a percentage of the original activity), ERK2 (ERK2; 10 micromolar compound) [%] | mean activity remaining (as a percentage of the original activity), PRK2 (PRK2; 10 micromolar compound) [%] | mean activity remaining (as a percentage of the original activity), CAMK Kb (CAMKKβ; 10 micromolar compound) [%] | mean activity remaining (as a percentage of the original activity), PHK (PHK) [%] | mean activity remaining (as a percentage of the original activity), NEK 6 (NEK6; 10 micromolar compound) [%] | mean activity remaining (as a percentage of the original activity), VEG-FR (VEG-FR) [%] | remaining activity at 10 µM (ERK2; ERK2, 10 μM, read-out: Mean Remaining Enzyme Activity (%)) [%] | remaining activity at 10 µM (PRK2; PRK2, 10 μM, read-out: Mean Remaining Enzyme Activity (%)) [%] | remaining activity at 10 µM (CAMKKβ; CAMKKβ, 10 μM, read-out: Mean Remaining Enzyme Activity (%)) [%] | Mean Remaining Enzyme Activity (%) (PHK; PHK, 10 μM) | remaining activity at 10 µM (NEK6; NEK6, 10 μM, read-out: Mean Remaining Enzyme Activity (%)) [%] | remaining activity at 0.1 µM (CDK9/cyclin T complex) [%] | IC50 (CDK9/cyclin T complex) [nM] | remaining activity at 10 µM (ERK2; [1]) [%] | remaining activity at 10 µM (PRK2; [2]) [%] | remaining activity at 10 µM (CAMKKβ; [3]) [%] | remaining activity at 10 µM (NEK6; [4]) [%]
CC(C)c1cnn2c(NCc3ccccc3F)cc(NCCCCCN)nc12 [ICEC-0232] | 70 | 106 | 18 | 10 | 74 | 105 | – | – | – | – | – | – | – | – | – | – | –
CC(C)c1cnn2c(NCc3ccccc3)cc(NCCCCCCCN)nc12 [BS-181] | – | – | – | – | – | – | 86 | 90 | 67 | 49 | 85 | – | – | – | – | – | –
CC[C@H](CO)Nc1cc(NCc2ccccc2)n2ncc(C(C)C)c2n1 [ICEC0067] | – | – | – | 68 | – | 99 | – | – | – | – | – | 85 | 100 | 59 | 96 | 29 | 101
C=C[C@H](CO)Nc1cc(NCc2ccccc2)n2ncc(C(C)C)c2n1 [ICEC0065] | – | – | – | 68 | – | 101 | – | – | – | – | – | 100 | > 1000 | 59 | 105 | 31 | 105
CC(C)c1cnn2c(NCc3ccccc3)cc(N[C@@H](CO)[C@H](O)CO)nc12 [ICEC0318, (3S)-3-(7-(Benzylamino)-3-isopropylpyrazolo[1,5-a]pyrimidin-5-ylamino)butane-1,2,4-triol] | – | – | – | 62 | – | 92 | – | – | – | – | – | 56 | – | 26 | 106 | 23 | 87
